We go through 19 compounds from ChEMBL document CHEMBL1201862, “PubChem BioAssay data set” (2004).

Targets include Cytochrome P450 2C9 (Homo sapiens, UniProt P11712); Cytochrome P450 3A4 (Homo sapiens, UniProt P08684); Cytochrome P450 2D6 (Homo sapiens, UniProt P10635).
The next data set deals with T1, Cytochrome P450 1A2 (Homo sapiens, UniProt P05177).
T1 sequence (P05177 whole entry): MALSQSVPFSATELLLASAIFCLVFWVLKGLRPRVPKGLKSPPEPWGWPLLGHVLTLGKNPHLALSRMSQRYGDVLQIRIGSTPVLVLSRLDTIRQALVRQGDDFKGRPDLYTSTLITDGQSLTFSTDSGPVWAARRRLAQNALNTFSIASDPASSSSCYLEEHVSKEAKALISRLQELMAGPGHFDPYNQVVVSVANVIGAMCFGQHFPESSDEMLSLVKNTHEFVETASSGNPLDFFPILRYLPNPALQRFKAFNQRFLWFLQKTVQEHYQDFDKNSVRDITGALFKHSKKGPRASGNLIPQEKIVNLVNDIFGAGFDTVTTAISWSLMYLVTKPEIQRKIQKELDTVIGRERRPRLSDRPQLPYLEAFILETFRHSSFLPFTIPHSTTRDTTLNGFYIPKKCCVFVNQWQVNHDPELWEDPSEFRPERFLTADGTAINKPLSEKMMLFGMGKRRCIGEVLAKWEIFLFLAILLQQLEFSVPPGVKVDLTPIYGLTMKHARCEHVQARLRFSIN

In data set [1] the target is T2, Calpain-2 catalytic subunit (Sus scrofa, UniProt P43367).
T2 sequence (P43367 whole entry): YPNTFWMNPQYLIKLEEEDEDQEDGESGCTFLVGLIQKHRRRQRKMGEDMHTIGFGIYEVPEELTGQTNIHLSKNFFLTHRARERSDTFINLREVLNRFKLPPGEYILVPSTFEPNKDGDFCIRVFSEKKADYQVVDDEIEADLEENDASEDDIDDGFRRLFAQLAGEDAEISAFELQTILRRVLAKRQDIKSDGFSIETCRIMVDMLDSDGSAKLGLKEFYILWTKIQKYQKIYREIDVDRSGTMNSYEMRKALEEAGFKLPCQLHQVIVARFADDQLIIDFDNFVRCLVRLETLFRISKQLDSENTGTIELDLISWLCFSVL
Nature of the data set: m-calpain protease blockers, concentration series – biochemical, fluorogenic peptide substrate, dose response (AID 1420). It is filed as functional.

For data set [2], the target named is T3, Polyadenylate-binding protein 1 (Homo sapiens, UniProt P11940). As to the kind of experiment: MLLE binding blockers, Cy5 peptide tracer – biochemical, fluorescence polarization, Cy5-PAM2 peptide, secondary, miRNA deadenylation inhibitor project, dose response (AID 602260). It counts as functional. Conditions: read-out: IC50_Mean. Background: Polarisation of emitted light reports the rotation of a fluorescent probe.

The target of data set [3] is T3, Polyadenylate-binding protein 1. As to the kind of experiment: MLLE domain peptide-binding blockers, IC50 – biochemical, fluorescence polarization, FITC-PAM2 peptide, dose response (AID 602259). It counts as functional. Conditions: read-out: IC50_Mean.
In the next data set the target is T4, Protein skinhead-1 (Caenorhabditis elegans, UniProt P34707).
T4 sequence (P34707 whole entry): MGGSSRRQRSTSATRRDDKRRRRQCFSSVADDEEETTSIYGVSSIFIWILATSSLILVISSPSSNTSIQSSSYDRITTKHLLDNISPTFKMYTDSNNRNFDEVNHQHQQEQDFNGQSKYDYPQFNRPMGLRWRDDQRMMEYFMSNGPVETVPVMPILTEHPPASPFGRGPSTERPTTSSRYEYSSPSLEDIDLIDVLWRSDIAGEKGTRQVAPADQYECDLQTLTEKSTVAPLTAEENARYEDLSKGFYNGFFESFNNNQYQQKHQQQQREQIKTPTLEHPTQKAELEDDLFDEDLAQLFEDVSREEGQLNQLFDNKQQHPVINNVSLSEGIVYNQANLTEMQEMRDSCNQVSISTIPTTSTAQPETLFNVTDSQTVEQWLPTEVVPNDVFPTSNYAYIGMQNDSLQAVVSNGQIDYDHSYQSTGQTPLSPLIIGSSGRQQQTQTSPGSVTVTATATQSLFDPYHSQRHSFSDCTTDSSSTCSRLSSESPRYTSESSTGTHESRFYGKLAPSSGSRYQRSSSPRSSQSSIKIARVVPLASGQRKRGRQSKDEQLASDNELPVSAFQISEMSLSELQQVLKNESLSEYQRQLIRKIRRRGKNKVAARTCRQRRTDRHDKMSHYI
It counts as functional.

Data set [4] has as its target T5, Short transient receptor potential channel 4 (Mus musculus, UniProt Q9QUQ5).
T5 sequence (Q9QUQ5 whole entry): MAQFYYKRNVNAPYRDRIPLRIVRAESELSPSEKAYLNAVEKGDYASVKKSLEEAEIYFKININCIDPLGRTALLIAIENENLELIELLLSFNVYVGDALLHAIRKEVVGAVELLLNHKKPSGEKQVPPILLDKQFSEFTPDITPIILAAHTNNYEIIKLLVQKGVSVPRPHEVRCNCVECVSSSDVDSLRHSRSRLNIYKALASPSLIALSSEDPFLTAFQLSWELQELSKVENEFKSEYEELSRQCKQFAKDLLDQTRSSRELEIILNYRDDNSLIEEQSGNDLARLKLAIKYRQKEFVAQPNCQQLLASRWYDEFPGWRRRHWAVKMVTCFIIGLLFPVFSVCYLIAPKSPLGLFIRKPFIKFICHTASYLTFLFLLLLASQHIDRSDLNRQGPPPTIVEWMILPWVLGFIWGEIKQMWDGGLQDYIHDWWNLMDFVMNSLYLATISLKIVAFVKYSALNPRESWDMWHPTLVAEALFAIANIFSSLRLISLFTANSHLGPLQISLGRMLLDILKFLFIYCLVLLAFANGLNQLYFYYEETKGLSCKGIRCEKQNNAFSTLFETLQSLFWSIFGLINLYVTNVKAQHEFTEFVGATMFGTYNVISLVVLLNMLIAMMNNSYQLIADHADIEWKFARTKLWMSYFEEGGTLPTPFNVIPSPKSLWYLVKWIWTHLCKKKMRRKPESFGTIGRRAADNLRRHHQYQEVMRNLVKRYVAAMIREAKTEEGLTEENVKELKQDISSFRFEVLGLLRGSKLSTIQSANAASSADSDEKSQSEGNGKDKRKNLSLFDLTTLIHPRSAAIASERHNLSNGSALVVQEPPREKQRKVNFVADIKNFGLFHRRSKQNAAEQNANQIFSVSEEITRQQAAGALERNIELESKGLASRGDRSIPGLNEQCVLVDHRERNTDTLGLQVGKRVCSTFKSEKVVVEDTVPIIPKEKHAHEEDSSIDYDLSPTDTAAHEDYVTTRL
As to the kind of experiment: block of DAMGO-driven TRPC4 calcium entry – cell-based, HEK293 TRPC4/mu-opioid, Fluo-4 calcium, dose response (AID 434942).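 Also: potency of inhibitors blocking the TRPC4 calcium response.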 It is filed as functional.

The next data set addresses Cytochrome P450 2C19 (Homo sapiens, UniProt P33261). As to the kind of experiment: Cytochrome panel assay with activity outcomes. Panel member name: p450-cyp2c19 Compounds with AC50 equal or less than 10 uM are considered active. It counts as functional.
The nature of data set [5]: Vero E6 cell cytotoxicity, dose response, cytotoxicity control for non-replicating M. tuberculosis project, secondary assay (AID 492998). It counts as functional, VeroE6. The settings on record: Vero C1008.
A short description of another data set: cells. It is filed as functional.
Data set [6] can be described thus: THP-1 cell cytotoxicity, dose response, cytotoxicity control for non-replicating M. tuberculosis project (AID 489025). It counts as functional.
Data set [7] deals with Luciferin 4-monooxygenase (Photinus pyralis, UniProt P08659). As to the kind of experiment: inhibition of purified Photinus pyralis luciferase – biochemical, luminescence, dose response (AID 1891).
Data set [8] in a line: Luminescence Cell-Based Dose Confirmation HTS to Identify Inhibitors of Platelet Dense Granule Release. [Related pubchem assays: 1663 (Primary HTS), 1678 (Summary of Project)]. It is filed as functional.
For data set [9], the target named is Heat shock protein HSP 90-alpha (Homo sapiens, UniProt P07900). It is filed as functional, organism-based.
Data set [10] is described as follows: blockade of melanocortin 4 receptor signaling – cell-based, plate reader, cherry pick, counter-screen for LGR2 antagonist project, dose response (AID 743444).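 Also: transfected HEK 293 cells stimulated with alpha-MSH peptide; potency of inhibitors of the alpha-MSH evoked signal.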 It counts as functional.
A further data set deals with INS1. As to the kind of experiment: INS-1E survival protection against cytokine death – cell-based, luminescence, retest, dose response (AID 449756).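 Also: cell death triggered by IL-1 beta plus TNF-alpha plus IFN-gamma mixture; protective hits raise ATP signal compared with cytokine alone wells.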 It counts as functional. The settings on record: Rattus norvegicus.
Data set [11] can be described thus: viability loss in HEK293 cells – cell-based, plate reader, cherry-picked samples, cytotoxicity control, dose response (AID 743446). It counts as functional.
A short description of data set [12]: toxicity toward HepG2 liver cells – cell-based, plate reader, cherry-pick, antagonist series, cytotoxicity control, dose response (AID 743416). It counts as functional.
The nature of data set [13]: A549 cell cytotoxicity, dose response, cytotoxicity control, plate reader, cherry-pick, antagonist series (AID 743412). It counts as functional, cell-based.
Data set [14] in a line: blockers of bursicon-stimulated LGR2 cAMP reporter – cell-based, HEK293, CRE-luciferase reporter, cherry pick, set 2, dose response (AID 743343).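 Also: transfected cells were stimulated with diluted bursicon conditioned medium after compound addition.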 It counts as functional. (In general: In a reporter assay the amount or activity of a reporter protein is the signal.)
The next data set relates to Vero. As to the kind of experiment: cells. It counts as functional. Conditions: Chlorocebus sabaeus.

Each structure is given as a SMILES string. “And” between values parts separate entries of the source, which are not always exact repeats. Equal entries are not always repeated. The source made the active and inactive calls.

T3 sequence (P11940 whole entry): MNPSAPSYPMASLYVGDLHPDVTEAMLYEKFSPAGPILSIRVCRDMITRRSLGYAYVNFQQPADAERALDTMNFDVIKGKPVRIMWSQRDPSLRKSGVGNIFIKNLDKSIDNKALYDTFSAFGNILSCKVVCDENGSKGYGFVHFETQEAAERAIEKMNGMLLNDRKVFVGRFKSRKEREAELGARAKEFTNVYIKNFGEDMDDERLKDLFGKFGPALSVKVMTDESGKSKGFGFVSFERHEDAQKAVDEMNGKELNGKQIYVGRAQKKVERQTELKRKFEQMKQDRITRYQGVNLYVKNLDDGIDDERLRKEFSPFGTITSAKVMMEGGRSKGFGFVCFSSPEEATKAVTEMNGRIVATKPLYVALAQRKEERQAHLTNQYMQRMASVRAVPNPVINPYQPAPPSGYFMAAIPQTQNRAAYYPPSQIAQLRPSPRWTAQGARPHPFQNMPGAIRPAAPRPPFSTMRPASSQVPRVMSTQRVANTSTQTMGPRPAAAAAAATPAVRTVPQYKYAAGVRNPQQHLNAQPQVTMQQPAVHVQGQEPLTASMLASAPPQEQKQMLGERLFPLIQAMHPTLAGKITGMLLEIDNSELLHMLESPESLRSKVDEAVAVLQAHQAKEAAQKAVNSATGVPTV
Cytochrome P450 2C9, sequence (P11712 whole entry): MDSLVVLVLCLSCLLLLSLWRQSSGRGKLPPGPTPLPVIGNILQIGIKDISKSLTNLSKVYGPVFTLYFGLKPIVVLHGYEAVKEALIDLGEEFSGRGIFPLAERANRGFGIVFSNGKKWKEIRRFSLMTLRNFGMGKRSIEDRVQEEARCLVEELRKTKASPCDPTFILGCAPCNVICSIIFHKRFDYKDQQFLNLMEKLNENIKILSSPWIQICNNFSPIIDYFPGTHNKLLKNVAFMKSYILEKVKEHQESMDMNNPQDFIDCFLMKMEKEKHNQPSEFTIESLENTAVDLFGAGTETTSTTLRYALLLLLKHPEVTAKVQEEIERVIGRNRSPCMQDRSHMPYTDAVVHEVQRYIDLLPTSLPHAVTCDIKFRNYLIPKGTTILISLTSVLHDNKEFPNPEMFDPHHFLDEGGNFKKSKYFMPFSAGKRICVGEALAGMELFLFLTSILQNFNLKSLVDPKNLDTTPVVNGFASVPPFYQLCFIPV
Cytochrome P450 2C19, sequence (P33261 whole entry): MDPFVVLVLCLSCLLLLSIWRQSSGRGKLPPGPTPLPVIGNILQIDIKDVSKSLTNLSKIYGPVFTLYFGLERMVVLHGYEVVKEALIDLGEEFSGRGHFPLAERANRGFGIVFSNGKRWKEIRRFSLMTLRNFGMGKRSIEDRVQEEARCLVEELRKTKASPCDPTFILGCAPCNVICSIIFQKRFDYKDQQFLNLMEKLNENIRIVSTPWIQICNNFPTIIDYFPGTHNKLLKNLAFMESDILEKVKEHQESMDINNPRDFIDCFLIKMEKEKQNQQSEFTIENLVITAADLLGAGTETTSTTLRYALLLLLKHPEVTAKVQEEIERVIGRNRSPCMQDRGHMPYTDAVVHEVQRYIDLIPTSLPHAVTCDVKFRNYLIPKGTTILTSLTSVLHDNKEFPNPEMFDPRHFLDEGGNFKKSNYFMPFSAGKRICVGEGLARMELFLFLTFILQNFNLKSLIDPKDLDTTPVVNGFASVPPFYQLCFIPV
Cytochrome P450 3A4, sequence (P08684 whole entry): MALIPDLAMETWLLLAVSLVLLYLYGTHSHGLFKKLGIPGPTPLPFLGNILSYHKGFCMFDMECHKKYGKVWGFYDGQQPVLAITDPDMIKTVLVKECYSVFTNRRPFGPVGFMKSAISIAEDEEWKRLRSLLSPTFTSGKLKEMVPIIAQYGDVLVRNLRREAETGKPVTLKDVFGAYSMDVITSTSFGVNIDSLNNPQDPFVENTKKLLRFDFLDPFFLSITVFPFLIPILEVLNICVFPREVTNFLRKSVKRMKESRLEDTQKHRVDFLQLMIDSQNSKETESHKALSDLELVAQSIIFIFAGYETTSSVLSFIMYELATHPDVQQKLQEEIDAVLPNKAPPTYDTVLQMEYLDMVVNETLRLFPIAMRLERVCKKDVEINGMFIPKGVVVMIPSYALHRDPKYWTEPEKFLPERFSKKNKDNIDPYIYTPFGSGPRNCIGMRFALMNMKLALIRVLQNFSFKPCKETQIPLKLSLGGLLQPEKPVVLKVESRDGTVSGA
Luciferin 4-monooxygenase, sequence (P08659 whole entry): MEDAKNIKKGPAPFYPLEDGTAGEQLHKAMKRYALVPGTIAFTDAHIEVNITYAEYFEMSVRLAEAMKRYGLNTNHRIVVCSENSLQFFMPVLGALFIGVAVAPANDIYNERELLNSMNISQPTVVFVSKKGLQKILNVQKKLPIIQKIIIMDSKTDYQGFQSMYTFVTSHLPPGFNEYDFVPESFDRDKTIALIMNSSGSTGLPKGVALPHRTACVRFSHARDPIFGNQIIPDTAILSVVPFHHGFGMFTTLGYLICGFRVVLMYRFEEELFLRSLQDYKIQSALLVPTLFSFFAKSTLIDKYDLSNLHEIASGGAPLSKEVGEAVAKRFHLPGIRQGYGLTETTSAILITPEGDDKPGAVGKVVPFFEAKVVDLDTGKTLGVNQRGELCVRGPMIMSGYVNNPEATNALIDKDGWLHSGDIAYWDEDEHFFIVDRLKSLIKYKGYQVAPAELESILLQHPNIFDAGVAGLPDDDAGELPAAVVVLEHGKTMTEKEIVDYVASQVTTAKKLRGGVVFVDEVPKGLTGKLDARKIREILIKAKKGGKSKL
Cytochrome P450 2D6, sequence (P10635 whole entry): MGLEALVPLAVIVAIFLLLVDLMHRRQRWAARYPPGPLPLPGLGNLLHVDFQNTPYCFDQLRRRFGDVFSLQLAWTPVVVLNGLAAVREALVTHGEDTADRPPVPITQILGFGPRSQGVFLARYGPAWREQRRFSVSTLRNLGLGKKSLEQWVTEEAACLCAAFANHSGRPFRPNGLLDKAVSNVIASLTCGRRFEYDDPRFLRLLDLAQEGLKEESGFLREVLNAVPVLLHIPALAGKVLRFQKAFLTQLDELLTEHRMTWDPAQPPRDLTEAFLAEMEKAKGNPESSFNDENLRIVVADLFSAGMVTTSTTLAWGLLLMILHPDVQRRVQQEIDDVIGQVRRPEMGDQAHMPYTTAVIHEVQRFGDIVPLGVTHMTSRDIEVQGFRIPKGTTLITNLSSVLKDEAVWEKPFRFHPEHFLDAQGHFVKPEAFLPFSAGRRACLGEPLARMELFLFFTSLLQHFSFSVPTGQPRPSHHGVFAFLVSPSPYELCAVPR

A word on the AC50: it is the concentration giving half of the maximal activity seen. As for `Cc1ccccc1C(=O)Nc1ccc(N2CCOCC2)nc1`, the AC50 was 17.8 µM (inconclusive) at Cytochrome P450 1A2 and “inconclusive” on Cytochrome P450 2C9.

For the compound `Cc1c(C#N)c(=O)oc2ccc3ccccc3c12`, the AC50 result at Cytochrome P450 2C9 is “inconclusive”.

For the compound `CCc1ccc(CNCc2cccnc2)cc1`, the IC50 in data set [1] was 0.454 µM (not active).

Turning to `CC(C)CN1CCCC2(CCN(C(=O)c3ccco3)CC2)C1`, the AC50 entry is “inconclusive” on Cytochrome P450 2C9 and 31.6 µM (inconclusive) at Cytochrome P450 3A4.

As for `O=C(CNC(=O)C12CC3CC(CC(C3)C1)C2)NC1=NCCS1`, the IC50 in data set [2] and in [3] was > 66 µM (inactive) in each case.

On to `CCOC(=O)C(CSCC(=O)c1ccc(Cl)cc1Cl)NC(=O)OC(C)(C)C` (stereo not drawn), for which the IC50 in data set [2] is > 66 µM (inactive); in data set [3] it was > 66 µM (inactive); on Protein skinhead-1, > 100 µM (inactive).

What is called EC50 is the concentration that produces a half-maximal response. Regarding `CCOC(=O)c1c(NC(=O)C2CC(Cl)=CCC2C(=O)O)sc2c1CCCCC2` (stereo not drawn), the EC50 in [4] was 6.68 µM (active).

Turning to `CC[n+]1c(/C=C(/C)SC)sc2ccccc21`, the IC50 in [2] and in [3] was > 66 µM (inactive) in each case.

Regarding `Cc1cc(SC(C)C(=O)Nc2c(C)n(C)n(-c3ccccc3)c2=O)nc2ccccc12` (stereo not drawn), the AC50 result at Cytochrome P450 2C9 was “inconclusive”; on Cytochrome P450 2C19 (read-out: AC50) it was 11.2 µM (inconclusive).

Turning to `O=C(NC(=S)NCCC1=CCCCC1)c1ccccc1Br`, the IC50 in data set [2] and in data set [3] was > 66 µM (inactive) in each case.

As usually defined, the CC50 is the concentration that lowers cell viability or growth by half. Consider `CN(Cc1ccccc1)C(=O)c1ccc([N+](=O)[O-])o1`, for which the CC50 in [5] is 19.4 µM (active); in data set [6] it was > 40 µM (active). For the same compound, the IC50 in “cells” is 0.36 µM (active).

`O=C(NN1C(=O)c2ccccc2NC1c1ccco1)c1ccc([N+](=O)[O-])cc1` (stereo not drawn): the IC50 in data set [1] is recorded as 10.6 µM (not active).

Take `Cc1cc(C)c2c(N=NN3CCOCC3)[nH]nc2n1`: the EC50 in [7] and in data set [8] was > 112 µM (not active) in each case. Further, the AC50 in data set [9] is 4.4 µM (active).

For the compound `Cc1cc(NC(=O)c2ccccc2Cl)c(C(C)C)cc1O`, the AC50 result on Cytochrome P450 2C9 is given as “inconclusive”.

Regarding `Cc1ccc2nc(NC(=O)c3ccccn3)sc2c1`, the CC50 in data set [5] is 7.23 µM (active); in [6], 10.7 µM (active); in the data set on Vero it was 11.3 µM (active). In “cells”, the IC50 is 0.63 µM (active). The AC50 in data set [10] was 0.582 µM (active); in the data set on INS1 it was 2.19 µM (active); in data set [11], 14 µM (active); in [12], 9.65 µM (active); in data set [13], 4.99 µM (active); in data set [14], 0.737 µM (active).

On to `Cc1ccccc1C(=O)NC1CC2CCC(C1)N2Cc1ccccc1` (stereo not drawn), for which the EC50 in data set [4] was 0.188 µM (active).

Take `Cc1c(Cl)c(S(N)(=O)=O)cc2c1N=CNS2(=O)=O`: the AC50 result at Cytochrome P450 2C9 was “inconclusive”; at Cytochrome P450 2D6, 3.98 µM (inconclusive).

In the case of `COc1ccc(/C=N/NC(=O)C2c3ccccc3Oc3ccccc32)c(OC)c1`, in data set [1], the IC50 is listed as 10.9 µM (not active).

In the case of `CN(C)CCCN1c2ccccc2CCc2ccc(Cl)cc21` [CLOMIPRAMINE], the AC50 on Cytochrome P450 1A2 is 15.8 µM (active) and 5.01 µM (active) and 20 µM (inconclusive); at Cytochrome P450 2C9, “inactive”; on Cytochrome P450 2C19, “inactive”.
